What was measured:
[1] = tested on: human liver stellate cells (hLSCs); experiment: Cell viability assay of NS and Doxo- or IR-induced senescent hLSCs treated with 25HC; assay type: cell-based; conditions: 100 μM after 3 days; Doxo or IR induced senescence
Experimental: (§1) Figure 7 25HC treatment timeline and its effects on NS and SEN hCMECs, hLSCs, hRPTECs, and hACs All cell types were treated with either DMSO, 250 nM Doxo or 10-Gy IR at the times shown. 25HC treatment was started 24 h after Doxo or IR treatment. Cell viability was measured every 3–5 days for 15 days. Optimal treatment times for maximum senolysis are shown for each cell type: day 15 for hCMECs, day 3 for hLSCs, day 9 for hRPTECs and day 12 for hACs. For qRT-PCR: mean ± SE, n =4, ∗p< 0.05, ∗∗p< 0.01, ∗∗∗p<0.001, ∗∗∗∗p<0.0001 by Dunnett’s multiple comparisons test vs DMSO or NS, For cell viability assays: mean ± SE, n =3, ∗∗p< 0.01, ∗∗∗p<0.001, ∗∗∗∗p<0.0001 vs 0 mM by student’s t test.
(§2) All experiments were performed in incubators at 37 °C, 3% O2 and 5% CO2. Senescence was induced by treatment with either Doxo (250 nM for 24 h) ([Demaria et al., 2017]) or X-irradiation (10 Gy) ([Limbad et al., 2020]). […]
(§3) Cell viability was assessed using a cell counting kit-8 from Dojindo Molecular Technologies, Inc (Cat CK04-20). […] The supernatant was transferred to a new 96-well plate and absorbance read at 450 nm as recommended in the product datasheet. […]
Cells were treated with either DMSO or 250 nM Doxo for 24 h. […] Cell viability was measured every 3-–5 days until 15 days.
(b) 25HC effects on NS or IR-treated hLSCs at vari ous ti mes. […] Cell viability was measured every 3–5 days until 15 days. […]

[2] = tested on: Cdkn1a mRNA and SASP factors in skeletal muscle; experiment: qRT-PCR of senescence markers, Cryab and SASP factors in skeletal muscles of aged mice given 25HC; assay type: in vivo, mouse
[3] = tested on: human articular chondrocytes (hAC); experiment: Cell viability assay of NS and Doxo- or IR-induced senescent hACs treated with 25HC; assay type: cell-based; conditions: 11.1 μM after 12 days; Doxo or IR induced senescence
Experimental: as §1, §2, §3
Cells were treated with DMSO or 250 nM Doxo for 24 h. […] Cell viability was measured every 3–5 days until 15 days. […] Cell viability was measured every 3–5 days until 15 days. […]

With `C[C@H](CCCC(C)(C)O)[C@H]1CC[C@H]2[C@@H]3CC=C4C[C@@H](O)CC[C@]4(C)[C@H]3CC[C@]12C` [25HC, 25-hydroxycholesterol] the “senolysis in hLSCs” value [1] was “induced significant senolysis”, the “Cdkn1a mRNA induction by aging in gastrocnemius and soleus muscles” value ([2]; 24–26-month-old mice, both genders, 25HC 50 mg/kg i.p. for 5 days) was “significantly reduced” and the “expression of SASP factors, including IL6, in skeletal muscle” value ([2]; mice treated with 25HC (Figures S17 and S18)) was “substantially inhibited”. The “senolysis in hACs” value [3] was “induced significant senolysis”.

Source: paper PMC8851282, “Senolysis induced by 25-hydroxycholesterol targets CRYAB in multiple cell types” (iScience, 2022)
